Measurements as given in the NIST ThermoML archive (doi:10.1016/j.jct.2016.06.023).
Numbers after ± are expanded uncertainties.

Test: mn = molality of the nth substance listed, in mol/kg
Conditions: 101.3 kPa, Liquid, Vibrating tube method

O=C(O)CC(=O)O [propanedioic acid] + O
mass density [kg/m3]
Conditions | 278.15 K | 283.15 K | 288.15 K | 293.15 K | 298.15 K | 303.15 K | 308.15 K
m1 = 0.01001 | 1000.48 ± 0.4 | 1000.21 ± 0.4 | 999.61 ± 0.4 | 998.7 ± 0.4 | 997.52 ± 0.4 | 996.14 ± 0.4 | 994.51 ± 0.4
m1 = 0.02001 | 1000.91 ± 0.4 | 1000.62 ± 0.4 | 1000.03 ± 0.4 | 999.1 ± 0.4 | 997.93 ± 0.4 | 996.53 ± 0.4 | 994.89 ± 0.4
m1 = 0.03 | 1001.31 ± 0.4 | 1001 ± 0.4 | 1000.4 ± 0.4 | 999.47 ± 0.4 | 998.3 ± 0.4 | 996.9 ± 0.4 | 995.23 ± 0.4
m1 = 0.03962 | 1001.73 ± 0.4 | 1001.4 ± 0.4 | 1000.79 ± 0.4 | 999.85 ± 0.4 | 998.66 ± 0.4 | 997.28 ± 0.4 | 995.6 ± 0.4
m1 = 0.04998 | 1002.16 ± 0.4 | 1001.83 ± 0.4 | 1001.21 ± 0.4 | 1000.27 ± 0.4 | 999.07 ± 0.4 | 997.66 ± 0.4 | 996 ± 0.4
m1 = 0.05936 | 1002.53 ± 0.4 | 1002.19 ± 0.4 | 1001.57 ± 0.4 | 1000.61 ± 0.4 | 999.4 ± 0.4 | 997.99 ± 0.4 | 996.33 ± 0.4
m1 = 0.06926 | 1002.93 ± 0.4 | 1002.58 ± 0.4 | 1001.95 ± 0.4 | 1000.99 ± 0.4 | 999.78 ± 0.4 | 998.37 ± 0.4 | 996.69 ± 0.4
m1 = 0.07949 | 1003.34 ± 0.4 | 1002.98 ± 0.4 | 1002.34 ± 0.4 | 1001.37 ± 0.4 | 1000.15 ± 0.4 | 998.72 ± 0.4 | 997.06 ± 0.4
m1 = 0.08906 | 1003.73 ± 0.4 | 1003.36 ± 0.4 | 1002.71 ± 0.4 | 1001.73 ± 0.4 | 1000.52 ± 0.4 | 999.08 ± 0.4 | 997.4 ± 0.4
m1 = 0.09935 | 1004.11 ± 0.4 | 1003.73 ± 0.4 | 1003.07 ± 0.4 | 1002.12 ± 0.4 | 1000.89 ± 0.4 | 999.45 ± 0.4 | 997.74 ± 0.4
m1 = 0.1984 | 1008.06 ± 0.4 | 1007.6 ± 0.4 | 1006.87 ± 0.4 | 1005.8 ± 0.4 | 1004.55 ± 0.4 | 1003.05 ± 0.4 | 1001.28 ± 0.4
m1 = 0.2977 | 1011.96 ± 0.4 | 1011.4 ± 0.4 | 1010.6 ± 0.4 | 1009.46 ± 0.4 | 1008.15 ± 0.4 | 1006.6 ± 0.4 | 1004.77 ± 0.4
m1 = 0.404 | 1016 ± 0.4 | 1015.36 ± 0.4 | 1014.47 ± 0.4 | 1013.26 ± 0.4 | 1011.88 ± 0.4 | 1010.27 ± 0.4 | 1008.39 ± 0.4
m1 = 0.5055 | 1019.85 ± 0.4 | 1019.12 ± 0.4 | 1018.15 ± 0.4 | 1016.89 ± 0.4 | 1015.45 ± 0.4 | 1013.79 ± 0.4 | 1011.84 ± 0.4
m1 = 0.6055 | 1023.51 ± 0.4 | 1022.71 ± 0.4 | 1021.67 ± 0.4 | 1020.35 ± 0.4 | 1018.85 ± 0.4 | 1017.14 ± 0.4 | 1015.15 ± 0.4
m1 = 0.6936 | 1026.73 ± 0.4 | 1025.86 ± 0.4 | 1024.77 ± 0.4 | 1023.39 ± 0.4 | 1021.85 ± 0.4 | 1020.08 ± 0.4 | 1018.07 ± 0.4
m1 = 0.7926 | 1030.29 ± 0.41 | 1029.35 ± 0.4 | 1028.19 ± 0.4 | 1026.76 ± 0.4 | 1025.16 ± 0.4 | 1023.35 ± 0.4 | 1021.29 ± 0.4
m1 = 0.891 | 1033.82 ± 0.41 | 1032.8 ± 0.41 | 1031.58 ± 0.4 | 1030.1 ± 0.4 | 1028.44 ± 0.4 | 1026.58 ± 0.4 | 1024.47 ± 0.4
m1 = 0.9895 | 1037.16 ± 0.41 | 1036.1 ± 0.41 | 1034.82 ± 0.41 | 1033.27 ± 0.41 | 1031.58 ± 0.4 | 1029.66 ± 0.4 | 1027.51 ± 0.4
